What all share (type): cell-based, human
Assay [1] concerns MCF-7 breast cancer cells. The assay can be described thus: Annexin V-FITC/PI apoptosis assay, MCF-7. As to conditions: MCF-7 cells, 48 hours. The method, then: 1-5. Assessment of apoptosis. Breast cancer cells were seeded into 6-well plates at 4×10^5 cells per well and treated with either paclitaxel or cisplatin or various concentrations of SMR peptides for 24 hours or different time point. SMR as described above. Apoptosis was determined the using Annexin V-FITC detection kit (Nexcelom, MA) and visualized by Cellometer imaging cytometry.

In assay [2] the test system is MDA-MB-231 breast cancer cells. The assay can be described thus: Exosome nanoparticle tracking analysis (NanoSight NTA), MDA-MB-231. Conditions: MDA-MB-231 cells treated 48 hr; control 4.7×10^9 particles/ml. The protocol:
1-6. Exosome isolation and purification. Exosomes were isolated from breast cancer cells by differential centrifugation as previously described (Ali SA. et al., 2010). Untreated tumor cells were used as a control. Briefly, the above treated and untreated cell culture supernatants were centrifuged at 400×g for 10 minutes. The supernatants were transferred to a clear tube and centrifuged at 10,000×g for 30 minutes. The supernatants from the second spin were ultracentrifuged at 200,000×g for 2 hours to pellet exosomes. Finally, the exosome pellets were re-suspended with PBS and stored at 4° C. until used for analysis.
1-8. Exosome nanoparticle tracking analysis (NTA). Analysis of absolute size distribution of exosomes was performed using NanoSight LM10 with NTA2.3 (NanoSight Ltd., Minton Park, UK). Particles were automatically tracked and sized based on Brownian motion and the diffusion coefficient. After isolation, the untreated and treated breast cancer exosomes were re-suspended in 0.5 mL of PBS. Control medium and filtered PBS were used as controls in this technique. The NTA measurement conditions were: temperature=21.0+/−0.5° C.; viscosity=0.99+/−0.01 cP; frames per second=25; measurement time=30 s. The detection threshold was similar in all samples. Two recordings were performed for each sample.
7-11. Exosome nanoparticle tracking analysis (NTA). […]

The subject of assay [3] is MCF-7 breast cancer cells. The assay can be described thus: InnoCyte cell migration assay, MCF-7. As to conditions: MCF-7 cells, 1120 nM SMR peptide or 3 μM Latrunculin A, 24 hours. The method, then: (§1) 7-12. Cell migration assay. Cell migration assays were performed using the InnoCyte Cell Migration Assay (EMD Millipore Corporation, Temecula, Calif.) according to the manufacturer's instructions. Briefly, cell migration was monitored in the presence and absence of SMRwt peptides or latrunculin A (positive control inhibitor), which were added to the lower chamber of a 96-well plate. MCF-7 and MDA-MB-231 breast cancer cells and non-tumorigenic MCF-10A breast cells were harvested by 0.25% Trypsin-EDTA (Life Technologies) release and resuspended at 250,000500,000 cells/ml in serum-free RPMI 1640 media. A total of 25,000-50,000 cells was added to the upper chamber and allowed to migrate through an 8-μm pore-size membrane for 24 hours at 37° C. in a 5% CO2 atmosphere. Cells that migrated through the membrane were detached and labeled with Calcein-AM fluorescent dye. Fluorescence was measured using a Fluorescence Plate Reader (Molecular Devices, Sunnyvale, Calif.) with an excitation wavelength of 485 nm and an emission wavelength of 515 nm. The experiment was repeated in triplicate, and each conditioned experiment was performed in quadruplicate.

Assay [4] deals with MDA-MB-231 breast cancer cells. The assay can be described thus: Propidium iodide cell cycle analysis (Cellometer), MDA-MB-231. Conditions: MDA-MB-231 cells, 48 hours, 0.28 μM/mL peptide. The method, then:
1-4. Cell cycle analysis. MCF-7 and MDA-MB-231 breast cancer cells were cultured into 6-well plates at 4×10^5 cells per well and treated with either paclitaxel and cisplatin or combined with PEG-SMRwt-CLU peptide for 24 and 48 hours. Cell cycle analysis was performed using a propidium iodide cell cycle assay and measured using a Cellometer (Nexcelom, MA). […] Breast cancer cells were seeded into 96-well plates at 5×10^3 cells/ml, and treated with either 1.6 μM//mL of paclitaxel, or 3 mg/mL cisplatin, 1.12 μM/mL PEG-SMRwt-CLU peptide, SMR peptide combined with paclitaxel or with cisplatin (MCF-7 cells). Alternatively 1.6 μM/mL paclitaxel or 2 mg/mL cisplatin or 0.28 μM/mL of PEG-SMR-CLU peptide, or the peptide combined with each of these drugs was used for MDA-MB-231 cells. The concentrations for cisplatin and paclitaxel were experimentally determined IC50 dosages for the different cell types (data not shown). At the end of the 24 hr or 48 hr incubations, the cells were assessed by the Cellometry imaging cytometry assay.
All above steps were done on MCF-7 and MDA-MB-231 cells separately. […]

Assay [5] deals with MDA-MB-231 breast cancer cells. The assay can be described thus: InnoCyte cell migration assay, MDA-MB-231. As to conditions: MDA-MB-231 cells, 280 nM SMR peptide or 3 μM Latrunculin A, 24 hours. The method, then: as §1

On to “NXNVGFPVAAVGFPVHPLSKHPYWSQP (SEQ ID NO: 37) [PEG-SMRwt-Clu]”, for which, in assay [1], the “effect on paclitaxel/cisplatin-induced apoptosis” value is “increased the level of drug-induced apoptosis”. Besides, the “number of exosome particles (NTA)” value in assay [2] is 6.8×10^8 particles/ml. Also, the figures for the “reduced migration by” value in assay [3] and in assay [5] were 75.74% and 52.37%, respectively. Further, in assay [4], the cell cycle effect result is listed as “induced cell cycle arrest”.

As for VGFPVAAVGFPVGRKKRRQRRRPPQ [SMRwt-CPP], the “reduced migration by” value was determined as 71.87% in assay [3] and 46.39% in assay [5].

(Values after patent US11472846B2, “Compositions and methods for treating diseases by inhibiting exosome release” (priority 2016, dated 2022).)
